According to US6551793B1, “Carotenoid-associated proteins useful for high carotenoid accumulation and production in plants and other organisms” (Yissum Research Development Company of the Hebrew …, priority 1996, dated 2003):

How the values were obtained:
Format in all cases: cell-based, Cucumis sativus
CHRC mRNA = assay: In vitro flower bud culture, Northern blot of CHRC mRNA in corollas
Description: (§1) Young flower buds were cultured in vitro in the presence (GA) or the absence (C) of 100 μM GA3 for up to 48 hours. Northern and Western blot analyses of corollas, cultured for the indicated periods of time, were performed. The Northern blots (25 μg total RNA/lane) were hybridized with ^32P-labeled DNA inserts from CHRC (CHRC), […] (Psy), and 18s rDNA (18S). Western blot analysis (bottom panel of A) was performed using antibodies against CHRC protein (25 μg total protein/lane). The results of the CHRC Northern blot analyses are also shown graphically relative to the mRNA level of the untreated corollas at zero time (0) (arbitrary value of 1).
(§2) Flower buds were cultured in the presence of 100 μm GA3 (GA), 100 μg/ml paclobutrazol following 2 hours of pretreatment with 100 μg/ml paclobutrazol (P), 100 μg/ml paclobutrazol +100 μm GA3 following 2 hours of pretreatment with 100 μg/ml paclobutrazol (P/GA), 100 μM ABA (ABA), or no phytohormones (C). Total RNA was extracted from corollas after 2 hours of treatment. Northern blot analyses were performed and probed as described in the legend to FIG. 7.
(§3) Total RNA and protein were extracted from cucumber corollas of flower buds cultured for 6 hours in the presence of 100 μM GA3 (GA), 50 μM CHX following 2 hours of pretreatment with 50 μM CHX (CHX/GA), or no phytohormones (C). Northern (CHRC, Psy, and 18S) and Western (bottom panel) blot analyses were performed as described above.
In FIG. 10, flower buds were cultured for 2 hours without (0) or with various concentrations of GA3. Total RNA was isolated from corollas, and a Northern blot was probed as above. The results of the CHRC Northern blot analyses are also shown graphically relative to the mRNA level of control corollas cultured without GA3 (arbitrary value of 1).
(§4) This example describes plant material and conditions for in vitro flower bud culture. C. sativus L. plants (cultivar Shimahon, obtained from Zeraim Gadera, Israel) were grown under standard greenhouse conditions. In vitro culture of flower buds was performed at 23° C., under constant light from cool white fluorescent lamps with a photosynthetic photon flux density of 80 μmol/m^2 g, as described previously. Briefly, buds at developmental stage 1 (˜8 mm in length, 120 hours before anthesis) were collected and rinsed several times with sterile water. Buds were then placed for 24 hours on a perforated Parafilm (American National Can, Greenwich, Conn.) covering a Petri dish filled with double-distilled sterile water, such that only the bases of the buds were in contact with the liquid. Following equilibration, buds were transferred to a fresh Petri dish (zero time for the experiments) and treated with GA3, ABA, paclobutrazol, or CHX, as specified in the figure legends.
This example describes conditions used for RNA isolation and Northern blot analysis. Total RNA from corollas of cucumber flower buds was isolated as described previously. RNA (15 and 25 μg) was fractionated through a 1.2% formaldehyde gel and transferred to a Hybond-N^− filter (Amersham Corp.). A random priming kit (Boehringer Mannheim) was used to radioactively labeled DNA probes. The blots were hybridized with ^32P-labeled cucumber CHRC cDNA (Vishnevetsky, et al., Plant Journal, 10: 1111-1118 (1996)) and reprobed with melon phytoene synthase (PSY) cDNA (MEL5), provided by D. Grierson of the Nottingham University, UK. The hybridization for analysis of CHRC expression was carried out in 0.263 M Na2HPO4, 7% SDS, […], 1% BSA for 16 hours at 60° C., and the washes were performed in 2×SSC/0.1% SDS at 50° C. followed by 2×SSC/0.1% SDS at 55° C., for 20 minutes each. Hybridization with the MEL5 probe was carried out at 55° C. using the same procedure. Following the hybridization, the blots were washed in 5×SSC/0.1% SDS at 45° C. for 20 minutes followed by 5×SSC/0.1% SDS at 50° C. and 2×SSC/0.1% SDS at 50° C. for 20 minutes each. […]

Psy mRNA = assay: In vitro flower bud culture, Northern blot of Psy mRNA in corollas
Description: as §1, §2, §3
as §4, with “Following equilibration, buds were transferred to a fresh Petri dish (zero time for the experiments) and treated with GA3, ABA, paclobutrazol, or CHX, as specified in the figure legends.” left out
This example describes conditions used for RNA isolation and Northern blot analysis. […] Autoradiograms were quantified by scanning suitably exposed films in a densitometer (Molecular Dynamics, Sunnyvale, Calif.). The amount of RNA loaded onto the gels was standardized by optical measurement, by quantitation of the ethidium bromide fluorescence of cytoplasmic rRNA. and by the level of hybridization with a DNA fragment coding for cytoplasmic 18S RNA.

CHRD = assay: In vitro flower bud culture, Western blot of CHRD in corollas
Description: CHRD levels in corollas were analyzed by western blotting (10 μg of total protein per lane) using antibodies against CHRD and horseradish peroxidase anti-rabbit IgG in an enhanced chemiluminescence detection system. FIG. 14B is a Western blot analysis of corollas (50 μg of total protein per lane) cultured for the indicated periods with (+) or without (−) GA3. The blot was decorated with antibodies against CHRD and alkaline phosphatase anti-rabbit 1 gG.
(§5) In FIG. 15A, antibodies against CHRD or CHRC were used in a western blot analysis of CHRD and CHRC levels, respectively, in corollas cultured for 72 hours in the presence (E) or absence (C) of ethylene (50 μg of total protein per lane). In FIG. 15B, flowers were enclosed in aluminum foil in the greenhouse for 3 days and CHRD levels in etiolated (D) and control, nonetiolated (L) corollas were analyzed by western blotting (50 μg of total protein per lane).
as §4
CHRD protein was isolated from Cucumis sativus as a minor component, immunologically characterised and analyzed in terms of the regulation of its expression by developmental signals using methods and conditions described above for CHRC. […] Carotenoids are known to accumulate in dark.

CHRC protein = assay: In vitro flower bud culture, Western blot of CHRC protein in corollas
Description: as §5, §4

[1] = system: GUS reporter gene expression; assay: Transient expression of reporter gene GUS under CHRC promoter versus 35S CaMV promoter
From the text: FIGS. 1A and 1B show comparative photographs of cucumber flowers petals showing transient expression of the reporter gene GUS using CHRC promoter (FIG. 1A) or known 35S CaMV promoter (FIG. 1B).
The promoter containing CHRC upstream region was about 70% as efficient as the 35S CaMV promoter in cucumber petals and about 60% as efficient in leaves, fruits and stems. The CHRC promoter's efficiency in another representative of the cucurbit family, namely in melon, was similar to the efficiency found in cucumber.
In cucumber-petals, the CHRC upstream region was about 70% as efficient as the 35S CaMV promoter. In leaves, fruits and stems, the CHRC promoter was about 60% as efficient as 35S CaMV. Promoter's efficiency in melon was similar to that observed in cucumber.

[2] = 50 μM CHX with 100 μM GA3, 6 hours
[3] = dose response 1×10^−8 to 1×10^−4 M GA3, 2 hours
[4] = ethylene, corollas cultured for 72 hours

Question: Which results are given for `CC(C)(C)[C@@H](O)[C@@H](Cc1ccc(Cl)cc1)n1cncn1` (racemic) [paclobutrazol]?
Answer: Decrease in CHRC mRNA levels relative to control untreated corollas (CHRC mRNA; 100 μg/ml paclobutrazol after 2 hours of pretreatment, 2 hours of treatment): 4 fold; Effect on Psy mRNA levels (Psy mRNA; 100 μM ABA or 100 μg/ml paclobutrazol, 2 hours of treatment): Neither ABA nor paclobutrazol markedly affected; CHRD level per unit protein, down-regulation compared with control untreated corollas (CHRD; flower buds cultured for 72 hours): 4.8±0.2 times

Question: For `C[C@@H]1C[C@@H]([C@H](O)CC2CC(=O)NC(=O)C2)C(=O)[C@@H](C)C1` [CHX, cycloheximide], which “Effect on increase in CHRC protein levels in GA3-treated buds” value (CHRC protein; [2]) is on record?
Answer: successfully abolished

Question: What about the “Effect on up-regulation of CHRC mRNA by GA3” value (CHRC mRNA; [2]) of the same molecule?
Answer: did not prevent

Question: What about the “Effect of CHX alone on CHRC transcript accumulation” value (CHRC mRNA; CHX alone) of the same molecule?
Answer: did not affect

Question: And the “Effect on Psy mRNA levels” value (Psy mRNA; 50 μM CHX, 6 hours)?
Answer: unaffected

Question: How did the “CHRC per unit of protein in treated versus control corollas” value (CHRC protein; 100 μM GA3, after 2 hours of treatment) turn out when `C=C1C[C@]23C[C@@]1(O)CC[C@H]2[C@@]12C=C[C@H](O)[C@@](C)(C(=O)O1)[C@H]2[C@@H]3C(=O)O` [GA3, Gibberellin A3] was run?
Answer: approximately 2.5 times

Question: What about the “CHRC mRNA level in treated versus control corollas” value (CHRC mRNA; 100 μM GA3, after 20 minutes of treatment) of the same molecule?
Answer: approximately twice as high

Question: What about the “CHRC transcript accumulation with exogenous GA3 added to paclobutrazol” value (CHRC mRNA; 100 μg/ml paclobutrazol + 100 μm GA3 after 2 hours paclobutrazol pretreatment) of the same molecule?
Answer: up-regulated CHRC transcript accumulation to the level of GA3-treated corollas

Question: And the “Concentration at which CHRC was strongly up-regulated” value (CHRC mRNA; [3])?
Answer: 10^−5−10^−4 M

Question: What about the “Lowest concentration sufficient to markedly elevate basal CHRC mRNA levels” value (CHRC mRNA; [3]) of the same molecule?
Answer: 10^−7 M

Question: And the “Time to detectable increase in CHRC mRNA level” value (CHRC mRNA; response to GA3, early time points (data not shown))?
Answer: 10 to 20 min

Question: What about the “Effect on Psy mRNA levels” value (Psy mRNA; GA3 treatment, first 45 hours of corolla development) of the same molecule?
Answer: not affected

Question: What about the “CHRD level in treated versus untreated buds” value (CHRD; GA3, after only 2 hours) of the same molecule?
Answer: markedly higher

Question: What about the “CHRD accumulation with GA3 in the culture medium” value (CHRD; GA3, in vitro bud culture, 72 hours) of the same molecule?
Answer: enhanced accumulation

Question: What does the source list for `C=C` [ethylene]?
Answer: CHRC level in treated corollas versus controls (CHRC protein; [4]): lower than that in controls; CHRD level per unit protein following treatment (CHRD; [4]): down-regulated

B1: CHRC upstream region: sequenced upstream region of the cucumber CHRC gene with strong promoter activity, SEQ ID NO:10 (nucleic acid, listed as Cucumis sativus)
DNA: AAGCTTTACAAATTAGGGTTACTTTATTCATTTTCATCCATTCTCTTTATTGTTAAATTTTGTACATTTATTCAATAATATTATATGTTTATTACAAATTCTCACTTTCTTATTCATACCTATTCACTCAAGCCTTTACCATCTTCCTTTTCTATTTCAATACTATTTCTACTTCATTTTTCACGTTTTTAACATCTTTCTTTATTTCTTGTCCACTTCGTTTAGGGATGCCTAATGTCCCAAATTTCATCTCTCGTAGTAACACAAAACCAATGTAATGCTACTTCTCTCTACATTTTTAATACAAATAAAGTGAAACAAAATATCTATAAATAAACAAATATATATATTTTGTTAGACGCTGTCTCAACCCATCAATTAAAAAATTTTGTTATATTTCTACTTTACCTACTAAATTTGTTTCTCATATTTACCTTTTAACCCCCACAAAAAAAAATTATAAAAAAGAAAGAAAAAAGCTAAACCCTATTTAAATAGCTAACTATAAGATCTTAAAATTATCCTCATCAGTGTATAGTTTAATTGGTTATTAACTTATAACATTATATATCTATGACATATACTCTCTCCTAGCTATTTCTCACATTTTTTAACTTAAGAAAATAGTCATAACATAGTCTAAAATTCAAACATCCACATGCTCTAATTTGATTAACAAAAAGTTAGAAATATTTATTTAAATAAAAAAGACTAATAAATATATAAAATGAATGTTCATACGCAGACCCATTTAGAGATGAGTATGCTTTCACATGCTGAGATTATTTTCAAAACTAAGGTTGTAGCAATATTAAATCAATAAAATTATTATAAATAACAAAATTAACCTGCTCGTGTTTGCTGTATATGGGAGGCTACAAAATAAATTAAACTAAAGATGATTATGTTTTAGACATTTTTTCTATCTGTATTAGTTTATACATATTAATTCAGGAGCTGCACAACCCAATTCTATTTTCGTTCCTTGGTGGCTGGGTTTCTCACAAGGTTCAATAGTCAATATTAGGTTTTATTGGACTTTTAATAGTATCAAACAAATCTATGTGTGAACTTAAAAATTGTATTAAATATTTAGGGTAACCTGTTGCCGTTTTTAGAATAATGTTTCTTCTTAATACACGAAAGCGTATTGTGTATTCATTCATTTGGCGCCTCACATGCTTCGGTTGGCTCGCTTTAGTCTCTGCCTTCTTTGTATATTGTACTCCCCCTCTTCCTATGCCACGTGTTCTGAGCTTAACAAGCCACGTTGCGTGCCATTGCCAAACAAGTCATTTTAACTTCACAAGGTCCGATTTGACCTCCAAAACAACGACAAGTTTCCGAACAGTCGCGAAGATCAAGGGTATAATCGTCTTTTTGAATTCTATTTCTCTTTATTTAATAGTCCCTCTCGTGTGATAGTTTTTAAAAGATTTTTAAAACGTAGCTGCTGTTTAAGTAAATCCCAGTCCTTCAGTTTGT
Question: How did the “Efficiency relative to the 35S CaMV promoter” value ([1]; cucumber leaves, fruits and stems) turn out when B1 was run?
Answer: about 60%

Question: What about the “Efficiency relative to the 35S CaMV promoter” value ([1]; cucumber petals) of the same molecule?
Answer: about 70%
